Test results: BindingDB's records for doi:10.1016/j.bmcl.2014.04.013 (University of Utah, 2014)

experiment: Agonist activity at AHR in FVB/N mouse primary mammary epithelial cells assessed as blockade of mammary branching morphogenesis after 144 hrs by microscopic analysis in presence of FGF2

`Clc1ccc(-c2nc(-c3ccccc3)no2)c(Cl)c1` and `Nc1cc(Cl)ccc1-c1nc(-c2ccccc2)no1` are within 1.5-fold of each other in EC50: 1200 nM for the first, 1400 nM for the second.

`Nc1cc(C(F)(F)F)ccc1-c1nc(-c2ccccc2)no1` and `O=[N+]([O-])c1cc(F)ccc1-c1nc(-c2ccccc2)no1` are within 1.5-fold of each other in EC50: 3200 nM for the first, 2200 nM for the second.

For `Clc1ccc(-c2nc(-c3ccccc3)no2)c(Cl)c1Cl`, the EC50 was > 10000 nM.
